Source: PMC8583042, “New Hybrid Compounds Combining Fragments of Usnic Acid and Thioether Are Inhibitors of Human Enzymes TDP1, TDP2 and PARP1” (International Journal of Molecular Sciences, 2021)

Tests used:
[1] = EZ4U colorimetric cytotoxicity test, HEK293A; assay type: cell-based; details: human
Excerpt: (§1) The low intrinsic cytotoxicity of the additional drug component in the clinically used anticancer cocktails with traditional drugs is very important for treatment. This approach in chemotherapy can reduce the potential resulting toxic load on the body in the case of a combined action of these inhibitors on the activity of several targets. […] The effects of the tested compounds on cell survival are shown on Figure 4 and the CC50 values for three cell lines are shown in Table 1. The intrinsic cytotoxicity of a number of the studied compounds is quite high, namely, they have close IC50 values against the TDP1 and CC50 values on one or several studied cell lines. Most of the compounds generally were more toxic for the HEK293FT and HeLa cell lines than for the HEK293A cell line (Table 1 and Figure 4). The cytotoxicity of the three leader compounds, 7g, 10a, and 7h, was quite high. […] Compound 10b was one of the least toxic among the ten tested compounds.
(§2) Cytotoxicity of the compounds was examined against human cell lines HEK293A (human embryonic kidney)—WT, TDP1 deficient (Tdp1-/-), PARP1 deficient (PARP1-/-), and HeLa (cervical cancer) using an EZ4U colorimetric test (Biomedica, Vienna, Austria). The HEK293A cell line was obtained from Thermo Fisher Scientific (Waltham, MA, USA), and the HeLa cell line was obtained from the Russian Cell Culture Collection (RCCC) Institute of Cytology RAS, St. Petersburg, Russia. The cells were grown in DMEM/F12 medium (Gibco, Thermo Fisher Scientific, Waltham, MA, USA), with 1x GlutaMAX (Gibco, Thermo Fisher Scientific, Waltham, MA, USA), 50 IU/mL penicillin, 50 μg/mL streptomycin (MP Biomedicals), and in the presence of 10% fetal bovine serum (Biolot, Saint-Petersburg, Russia) in a 5% CO2 atmosphere. Cells were grown in the presence of 1% DMSO in the control wells. After the formation of a 30–50% monolayer, the tested compounds were added to the medium, and the cell culture was monitored for 3 days. The values were normalized to their own control in each case. At least three independent experiments were carried out. The 50% cytotoxic concentration (CC50) was defined as the compound concentration that reduced the cell viability by 50% when compared to the untreated controls. The compound concentration that caused 50% cell growth inhibition was determined using OriginPro 8.6.0 software (OriginLab, Northampton, MA, USA). The measurements were carried out in three independent experiments.

HeLa cells [2] = test: EZ4U colorimetric cytotoxicity test, HeLa; assay type: cell-based, human; details: Homo sapiens; HeLa, only Tpc
Excerpt: as §1, §2

[3] = Colorimetric cytotoxicity test, HEK293A PARP1-/-; assay type: cell-based; details: human, PARP1-/- HEK293A cells; PARP1-/- HEK293A cell line; read-out: CC50 of Tpc
Excerpt: In our previous works, we checked the cytotoxic effect of Tpc and the TDP1 inhibitors—monoterpene 3-carene-derived compounds [48, 49] and UA combined with monoterpenoids, measured separately and jointly with Tpc—using a panel of HEK293FT and HEK293A Tdp1 knockout isogenic clones. […] The data on the HEK293FT mutants were of low reproducibility, which is why we decided to change the basic cell line to HEK293A [49]. In this work, we created new PARP1-/- HEK293A cells using the CRISPR–Cas9 approach (Figure S27). […] We checked the intrinsic cytotoxicity of the leader compound (10a) on the HEK293 wild type and TDP1-/- and PARP1-/- cell lines using a colorimetric test (Figure 6). […] There was no difference between the WT and mutant cells.
Cytotoxicity of the compounds was examined against human cell lines HEK293A (human embryonic kidney)—WT, TDP1 deficient (Tdp1-/-), PARP1 deficient (PARP1-/-), and HeLa (cervical cancer) using an EZ4U colorimetric test (Biomedica, Vienna, Austria). […] After the formation of a 30–50% monolayer, the tested compounds were added to the medium, and the cell culture was monitored for 3 days. […] The compound concentration that caused 50% cell growth inhibition was determined using OriginPro 8.6.0 software (OriginLab, Northampton, MA, USA). […]

HeLa cells [4] = test: Cytotoxicity of the combination of 10a and topotecan on HeLa cells; assay type: cell-based, human; details: Homo sapiens; HeLa, Tpc titrated with fixed 5 μM 10a; read-out: CC50 of Tpc with 10a
Excerpt: TDP1 is able to cleave the TOP1–DNA complex, thus preventing the action of Tpc and decreasing the efficiency of this clinically used drug. The inhibition of TDP1 activity can increase the efficiency of Tpc. Next, we checked the cytotoxic effect of the combination of Tpc and examined the TDP1 inhibitors compared to Tpc alone on HeLa cells and HEK293 cells.
We observed the suppressed cell growth in the joint presence of the TDP1 inhibitor and Tpc on HeLa cells compared to Tpc alone (Figure 5). We observed the synergistic effect both when we titrated 10a with addition of fixed Tpc (1 μM or 2 μM) and vice versa when we titrated Tpc with addition of fixed 10a (5 μM). […] The CC50 value of Tpc decreased from 2 μM (only Tpc) to 0.7 μM (Tpc with 5 μM 10a).
as §2, with “The 50% cytotoxic concentration (CC50) was defined as the compound concentration that reduced the cell viability by 50% when compared to the untreated controls.” left out, “The measurements were carried out in three independent experiments.” left out

[5] = EZ4U colorimetric cytotoxicity test, HeLa; assay type: cell-based, human; details: human, HeLa cells; intrinsic cytotoxicity, compound alone, 3 days
Excerpt: as §1, §2

PARP1 = molecular target: T1, PARP1 (Homo sapiens, UniProt P09874); test: PARP1 autopoly(ADP-ribosyl)ation assay with [32P]-NAD+; assay type: biochemical; details: 0.5 mM concentration of the compound; read-out: PARP1 residual activity
T1 construct: made in house; host or cells: E. coli
T1 sequence (P09874 whole entry): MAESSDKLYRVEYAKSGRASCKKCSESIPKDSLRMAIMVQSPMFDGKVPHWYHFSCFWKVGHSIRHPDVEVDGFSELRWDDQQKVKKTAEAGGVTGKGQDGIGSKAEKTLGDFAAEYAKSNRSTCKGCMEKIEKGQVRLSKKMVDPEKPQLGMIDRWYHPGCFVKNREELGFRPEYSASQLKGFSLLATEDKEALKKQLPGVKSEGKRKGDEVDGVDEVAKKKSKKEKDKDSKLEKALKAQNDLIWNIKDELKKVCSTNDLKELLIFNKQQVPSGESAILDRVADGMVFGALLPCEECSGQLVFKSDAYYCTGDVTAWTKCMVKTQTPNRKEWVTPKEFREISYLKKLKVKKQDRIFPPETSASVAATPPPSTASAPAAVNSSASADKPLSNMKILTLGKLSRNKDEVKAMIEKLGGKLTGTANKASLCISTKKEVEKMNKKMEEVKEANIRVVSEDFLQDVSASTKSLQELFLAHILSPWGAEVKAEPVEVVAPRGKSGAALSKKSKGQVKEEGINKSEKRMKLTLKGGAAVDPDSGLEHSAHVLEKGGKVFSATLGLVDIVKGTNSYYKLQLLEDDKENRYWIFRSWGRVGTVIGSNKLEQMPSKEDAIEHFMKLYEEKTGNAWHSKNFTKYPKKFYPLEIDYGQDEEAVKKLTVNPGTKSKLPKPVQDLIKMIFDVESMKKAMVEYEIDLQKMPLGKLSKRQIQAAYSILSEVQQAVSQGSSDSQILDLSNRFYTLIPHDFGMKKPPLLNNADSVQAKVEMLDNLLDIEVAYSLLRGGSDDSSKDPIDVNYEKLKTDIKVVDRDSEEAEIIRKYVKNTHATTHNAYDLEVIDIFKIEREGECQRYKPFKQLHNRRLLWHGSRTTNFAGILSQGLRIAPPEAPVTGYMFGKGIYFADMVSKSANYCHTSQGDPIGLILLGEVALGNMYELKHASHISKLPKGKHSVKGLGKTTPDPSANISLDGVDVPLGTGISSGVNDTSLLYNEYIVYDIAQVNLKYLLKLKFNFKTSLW
Procedure: The next step of our study was to test the inhibitors for their ability to inhibit PARP1 and PARP2. UA and the 14 synthesized compounds were tested for the suppression of the ability of PARP1 and PARP2 to include a radioactive label into the acid-insoluble reaction product, poly(ADP-ribose) (PAR). […] The best effect we observed was for 9; the residual activity was 40 ± 5% under the reaction conditions (0.5 mM concentration of the compound), indicated in Materials and Methods.
(§3) Human recombinant tyrosyl-DNA phosphodiesterase 1 (TDP1) and human recombinant poly(ADP-ribose)-polymerase1 (PARP1) were expressed in the E. coli system and purified as described.
The radioactive labeled [32P]-NAD+ was synthesized from α–[32P]-ATP according to [55]. The reaction of autopoly(ADP-ribosyl)ation was carried out as follows: for PARP1, 50 mM Tris-HCl, pH 8.0, 10 mM MgCl2, 150 mM NaCl, and 7 mM β-mercaptoethanol, as well as activated DNA 2 oe/mL, 0.3 mM [^32P]-NAD+ at 37 °C. The reaction was initiated by adding PARP1 to 200 nM and the reaction mixtures were incubated for 2 min. For PARP2: 50 mM Tris-HCl, pH 8.0, 3 mM spermin, 150 mM NaCl, and 7 mM β-mercaptoethanol, as well as activated DNA 2 oe/mL, 0.6 mM [^32P] NAD+ at 37 °C. […] The incorporation of radioactivity into the product was calculated using a Typhoon FLA 9500 scanner (GE Healthcare, Chicago, IL, USA). […]

[6] = Colorimetric cytotoxicity test, HEK293FT; assay type: cell-based; details: human, HEK293FT cells, intrinsic cytotoxicity
Excerpt: as §1, §2

TDP1 = molecular target: T2, TDP1 (Homo sapiens, UniProt Q9NUW8); test: Real-time fluorescence assay of TDP1 activity; assay type: biochemical; details: real-time fluorescent assay, 1.5 nM TDP1, 50 nM oligonucleotide; read-out: IC50 (TDP1)
T2 construct: made in house; host or cells: E. coli
T2 sequence (Q9NUW8 whole entry): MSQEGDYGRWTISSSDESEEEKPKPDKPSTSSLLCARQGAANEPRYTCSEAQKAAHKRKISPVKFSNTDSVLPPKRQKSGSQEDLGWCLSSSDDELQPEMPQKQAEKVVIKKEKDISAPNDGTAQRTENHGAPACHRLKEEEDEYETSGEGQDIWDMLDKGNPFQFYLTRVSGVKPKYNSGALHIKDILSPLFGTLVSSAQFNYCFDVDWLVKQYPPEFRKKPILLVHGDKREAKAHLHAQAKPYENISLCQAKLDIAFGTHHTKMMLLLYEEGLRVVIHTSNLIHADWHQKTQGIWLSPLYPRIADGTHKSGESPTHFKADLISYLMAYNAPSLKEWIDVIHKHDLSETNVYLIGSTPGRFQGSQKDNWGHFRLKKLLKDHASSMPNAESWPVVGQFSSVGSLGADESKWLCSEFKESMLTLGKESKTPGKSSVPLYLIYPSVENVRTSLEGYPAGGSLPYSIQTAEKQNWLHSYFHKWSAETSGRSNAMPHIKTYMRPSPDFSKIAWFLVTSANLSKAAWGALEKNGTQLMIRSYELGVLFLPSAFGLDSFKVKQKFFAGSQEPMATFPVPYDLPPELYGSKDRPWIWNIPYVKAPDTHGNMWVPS
Excerpt: We tested UA and all 14 newly synthesized UA derivatives for their TDP1 inhibitory properties by measuring their IC50 values using a real-time fluorescent assay. […] Compounds 10a,b are sulfoxide analogs of 7g,h.
as §3
The biosensor (5′-[FAM] AAC GTC AGGGTC TTC C [BHQ]-3′) was synthesized in the Laboratory of Nucleic Acid Chemistry at the Institute of Chemical Biology and Fundamental Medicine (Novosibirsk, Russia) and was used for TDP1 enzyme activity real-time fluorescence detection. The reaction mixture (200 μL) contained a TDP1 reaction buffer (50 mM Tris-HCl, pH 8.0, 50 mM NaCl, and 7 mM β-mercaptoethanol), 50 nM oligonucleotide, varied concentrations of the tested compounds, and purified TDP1 in a final concentration 1.5 nM. The reaction mixtures were incubated at a constant temperature of 26 °C in a POLARstar OPTIMA fluorimeter (BMG LABTECH, GmbH, Ortenberg, Germany). Fluorescence intensity was measured (Ex485/Em520 nm) every 1 min for 10 min. The average values of the half maximal inhibitory concentration (IC50) were determined using an eleven-point concentration response curve and calculated using MARS Data Analysis 2.0 (BMG LABTECH). The 50% inhibitory concentration (IC50) was defined as the concentration of the compound that inhibited 50% of the enzyme activity when compared to the untreated controls. At least three independent experiments were carried out to obtain the IC50 values. To determine the kinetic parameters of the TDP1 enzymatic reaction, the apparent maximum rate of enzymatic reaction (Vmax), Michaelis constant (KM), possible inhibition mechanism, and steady-state kinetic experiments were carried out at 5 fixed concentrations of the substrate, with variation in the inhibitor concentrations. The standard reaction mixtures (200 μL) contained reaction buffer components; 50 nM, 100 nM, 200 nM, 500 nM, or 1000 nM substrate; an inhibitor; and 1.5 nM recombinant human TDP1. The initial kinetic curves were obtained in three independent experiments and statistically processed in OriginPro 8.6.0 (OriginLab, Northampton, MA, USA).

Row | SMILES | CC50 at 3 days ([1]; wild-type HEK293A cells, WT HEK293A cells, read-out: CC50 of Tpc) | CC50 (HeLa cells [2]) | CC50 at 3 days [3] | CC50 (HeLa cells [4]) | CC50 at 3 days ([1]; HEK293A cells, intrinsic cytotoxicity, 3 days, read-out: HEK293A CC50) | CC50 at 3 days [5] | remaining activity at 500 µM (PARP1) | CC50 at 3 days [6] | IC50 (TDP1)
1 | CC[C@@]1(O)C(=O)OCc2c1cc1n(c2=O)Cc2cc3c(CN(C)C)c(O)ccc3nc2-1 [Tpc, topotecan, reference compound] | 27 ± 4 nM | 2000 nM | 50 ± 5 nM | 700 nM | – | – | – | – | –
2 | CC(=O)C1=C(O)C=C2Oc3c(C(=O)CSC(N)=O)c(O)c(C)c(O)c3[C@@]2(C)C1=O [compound 9, (2R)-4-acetyl-10-[2-(carbamoylsulfanyl)acetyl]-5,11,13-trihydroxy-2,12-dimethyl-8-oxatricyclo[7.4.0.0^2,7]trideca-1(13),4,6,9,11-pentaen-3-one] | – | – | – | – | > 50000 nM | 13000 ± 1000 nM | 40 ± 5% | 7000 ± 2000 nM | 6600 ± 1000 nM
